The results in this text go back to patent US12708629B2, “Methods and compositions for reducing parathyroid levels” (EIRGEN PHARMA LTD., priority 2010, dated 2026).

Broadly, the AUC(0-inf) is the area under the concentration-time curve extrapolated to infinity. The Cmax is the peak of the concentration-time curve. As usually defined, the Tmax is the time at which the peak concentration occurs.

Data set [1] is described as follows: Single-dose pharmacokinetics of oral 25-hydroxyvitamin D3 formulations and IV injection in miniature swine (Example 1). The data set is classed as in vivo, Yucatan miniature swine. Here is the method:
Nine oral vitamin D formulations were prepared according to Table 2 below by homogeneously mixing the identified components in the amounts shown and filling the mixtures into hard gelatin capsules. Formulation 9 is an immediate-release formulation according to the prior art, wherein MIGLYOL 812N is the trade name for caprylic/capric triglycerides, available from CONDEA Chemie GmbH of Cranford, New Jersey, USA. […] Each group included five animals.
Blood was collected pre-dose, and at 0.5, 1, 2, 4, 6, 8, 12, 24, 48, 96, 168, 240, 336, 432, 504, 576, and 672 hours post dosing. Serum 25-hydroxyvitamin D3 levels were assayed by Liquid Chromatography/Mass Spectrometry/Mass Spectrometry (LC MS/MS).

Data set [2] is described as follows: Expected rise of serum 25-hydroxyvitamin D3 in a human, stated after the mini-pig result. The following applies: single dose of 50 μg to a human (about 60 kg). The data set is classed as in vivo.
Data set [3] in a line: clinical. The following applies: human, in vivo, 450 ug. An excerpt: (§1) The modified release dosage formulation was the same as formulation 7 in Table 2 herein, with the following exceptions: (1) a vegetable-based capsule was used in place of a gelatin capsule; (2) hard paraffin content was reduced to 20%; and (3) liquid paraffin (light mineral oil) content was increased to 30%.
(§2) The bioavailability of the modified release dosage form was about 10% measured over the duration of the study (42 days).

The subject of data set [4] is iPTH. Description: Example 8: iPTH in Stage 3 or 4 CKD subjects. The class given is in vivo, human. Conditions: single dose: IV 448 μg or 450 μg MR.
Text: as §1, §2

The mark [5] stands for this setting: Yucatan, minipig, serum, iv, 250 ug.

In data set [1] (setting [5]), `C=C1CC[C@H](O)C/C1=C/C=C1\CCC[C@]2(C)[C@@H]([C@H](C)CCCC(C)(C)O)CC[C@@H]12` [25-hydroxyvitamin D3] gave an AUC(0-inf) of 16600 ng·h/mL. Also, the Cmax in data set [1] (setting [5]) is 155 ng/mL; in data set [3], 134 ± 19 ng/mL. Also, the Tmax in data set [1] (setting [5]) was 1.5 h; in data set [3] (AVG), 0.5 ± 0.6 h; in data set [3] (Median), 0.25 h. Also, in data set [1] (Yucatan, minipig, serum, iv, 250 ug, read-out: AUC (0-672 hr)), the AUC(0-t) worked out at 15000 ng·h/mL. The half-life in data set [1] (Yucatan, minipig, serum, iv, 250 ug, read-out: T½ (converted)) was 132 h; in data set [3], 1780 h. Moreover, the BA in data set [1] (single 250 μg dose, Group 10 IV injection = 100.0) worked out at 100.0%. Further, in data set [2], the “expected increase of serum 25-hydroxyvitamin D3” value is “about 1.4 ng/ml”. For the same molecule, in data set [3], the “tmax, AVG” value is 0.49 h. Also, the “effect on mean iPTH” value in data set [4] is “minimal to no effect”; in data set [4] (listed as IV calcifediol), “no clinically meaningful effect”.
